# Laboratory results as given in patent US20240067632A1, “WEE1 Degrading Compounds and Uses Thereof” (Bristol-Myers Squibb Company, priority 2022, published 2024).
# Read-outs that look alike come from different tables or passages of the source.
# Key:
# [1] = target: T1, WEE1 (Homo sapiens, UniProt P30291+Q96SW2); assay: WEE1-ePL degradation assay (LentiX-WEE1-ePL-GSPT1-ND cells, InCELL Hunter luminescence, 4 h); type: cell-based; conditions: 293T-LentiX WEE1-ePL cells; for DC50: read-out: 293T-LentiX WEE1-ePL Degradation 4 hr (EC50)
# T1 construct: C-terminal ePL-tagged (DiscoverX, Fremont, CA) full-length WEE1 expression construct; expressed in transfected cells; host or cells: LentiX-HEK293T (Invitrogen), lentiviral transduction; co-expressing GSPT1-GN (G576N, lacking the first 158 amino acids)
# Summary of the method: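 First, compounds were pre-plated as 10-point, 3-fold dilutions (top 1 uM or 10 uM) with DMSO control; next, WEE1-ePL-expressing HEK293T cells were added and held 4 h at 37 °C; finally, InCELL Hunter reagent was applied for 30 min before luminescence reading. A 4PL fit gave EC50 and Ymin.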
# [2] = test system: MKN45 cells; assay: MKN45 cell proliferation assay (Cell-Titer-Glo, 120 h); type: cell-based; conditions: for EC50: Homo sapiens, MKN-45, 120 h, Cell-Titer-Glo, read-out: MKN45 Cell Prolif. 120 hr (EC50); for MKN45 Cell Prolif. 120 hr (Ymin-Obs): minimal percent of DMSO control observed in the concentrations tested
# Summary of the method: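 Growth inhibition was read as blank-corrected Cell-Titer-Glo luminescence expressed as percent DMSO control after 120 h at 37 C, 400 cells/well. Compounds tested in triplicate as 10-point half-log series from 1 or 10 uM, 0.1% DMSO; four-parameter fit gave EC50, and lowest observed percent control was reported as Ymin-obs.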
# [3] = lower limit of the fit (Ymin=0 luciferase inhibitor, Ymax DMSO control)
Compound,"293T-LentiX WEE1-ePL Degradation 4 hr (Ymin) [1, 3]",DC50 [1] [nM],EC50 [2] [nM],"293T-LentiX WEE1-ePL Degradation 4 hr (Ymin) ([1]; lower limit of the fit (0 = luciferase inhibitor, Ymax = DMSO control))",EC50 ([2]; growth inhibition) [nM],MKN45 Cell Prolif. 120 hr (Ymin-Obs) [2]
"O=C1CC[C@H](N2Cc3cc(O[C@H]4CCN(Cc5cc(N6CCC6)c6nc(C7CCOCC7)ccc6c5)C4)ccc3C2=O)C(=O)N1 [(3S)-3-(5-{[(3S)-1-{[8-(azetidin-1-yl)-2-(oxan-4-yl)quinolin-6-yl]methyl}pyrrolidin-3-yl]oxy}-1-oxo-2,3-dihydro-1H-isoindol-2-yl)piperidine-2,6-dione]",33.36,26,10.8,,,3.155
"O=C1CC[C@H](N2Cc3cc(O[C@H]4CCN(Cc5cc(C6CC6)c6nc(C7CCOCC7)ccc6c5)C4)ccc3C2=O)C(=O)N1 [(3S)-3-(5-{[(3S)-1-{[8-cyclopropyl-2-(oxan-4-yl)quinolin-6-yl]methyl}pyrrolidin-3-yl]oxy}-1-oxo-2,3-dihydro-1H-isoindol-2-yl)piperidine-2,6-dione]",54.54,2.58,0.16,,,3.047
"O=C1CC[C@H](N2Cc3cc(O[C@H]4CCN(Cc5cc(F)c6nc(N7CCOCC7)ncc6c5)C4)ccc3C2=O)C(=O)N1 [(3S)-3-(5-{[(3S)-1-{[8-fluoro-2-(morpholin-4-yl)quinazolin-6-yl]methyl}pyrrolidin-3-yl]oxy}-1-oxo-2,3-dihydro-1H-isoindol-2-yl)piperidine-2,6-dione]",32.63,3.13,7.59,,,10.25
"O=C1CC[C@H](N2Cc3cc(O[C@H]4CCN(Cc5cc(F)c6nc(C7CCOCC7)ccc6c5)C4)ccc3C2=O)C(=O)N1 [(3S)-3-(5-{[(3S)-1-{[8-fluoro-2-(oxan-4-yl)quinolin-6-yl]methyl}pyrrolidin-3-yl]oxy}-1-oxo-2,3-dihydro-1H-isoindol-2-yl)piperidine-2,6-dione]",,1.45,,29.02,2.29,8.43
"C[C@@H]1CN(Cc2ccc3nc([C@@H]4CCOC(C)(C)C4)ccc3c2)C[C@H]1Oc1ccc2c(c1)CN([C@H]1CCC(=O)NC1=O)C2=O [(3S)-3-(5-{[(3S,4R)-1-({2-[(4R)-2,2-dimethyloxan-4-yl]quinolin-6-yl}methyl)-4-methylpyrrolidin-3-yl]oxy}-1-oxo-2,3-dihydro-1H-isoindol-2-yl)piperidine-2,6-dione]",24.64,1.15,0.424,,,8.113
"C[C@@H]1CN(Cc2ccc3nc([C@H]4CCOC(C)(C)C4)ccc3c2)C[C@H]1Oc1ccc2c(c1)CN([C@H]1CCC(=O)NC1=O)C2=O [(3S)-3-(5-{[(3S,4R)-1-({2-[(4S)-2,2-dimethyloxan-4-yl]quinolin-6-yl}methyl)-4-methylpyrrolidin-3-yl]oxy}-1-oxo-2,3-dihydro-1H-isoindol-2-yl)piperidine-2,6-dione]",24.63,3.51,1.44,,,9.434
"C[C@@H]1CN(Cc2cc(F)c3nc([C@H]4CCOC4)ccc3c2)C[C@H]1Oc1ccc2c(c1)CN([C@H]1CCC(=O)NC1=O)C2=O [(3S)-3-(5-{[(3S,4R)-1-({8-fluoro-2-[(3R)-oxolan-3-yl]quinolin-6-yl}methyl)-4-methylpyrrolidin-3-yl]oxy}-1-oxo-2,3-dihydro-1H-isoindol-2-yl)piperidine-2,6-dione]",26.61,0.985,0.955,,,7.865
"C[C@@H]1CN(Cc2cc(F)c3nc(C4CCOCC4)ccc3c2)C[C@H]1Oc1ccc2c(c1)CN([C@H]1CCC(=O)NC1=O)C2=O [(3S)-3-(5-{[(3S,4R)-1-{[8-fluoro-2-(oxan-4-yl)quinolin-6-yl]methyl}-4-methylpyrrolidin-3-yl]oxy}-1-oxo-2,3-dihydro-1H-isoindol-2-yl)piperidine-2,6-dione]",33.52,1.05,1.42,,,9.05
"COC[C@@H]1CN(Cc2ccc3nc([C@@H]4CCOC(C)(C)C4)ccc3c2)C[C@H]1Oc1ccc2c(c1)CN([C@H]1CCC(=O)NC1=O)C2=O [(3S)-3-(5-{[(3S,4S)-1-({2-[(4R)-2,2-dimethyloxan-4-yl]quinolin-6-yl}methyl)-4-(methoxymethyl)pyrrolidin-3-yl]oxy}-1-oxo-2,3-dihydro-1H-isoindol-2-yl)piperidine-2,6-dione]",25.48,0.726,0.247,,,7.692
"COC[C@@H]1CN(Cc2cc(F)c3nc([C@H]4CCOC(C)(C)C4)ccc3c2)C[C@H]1Oc1ccc2c(c1)CN([C@H]1CCC(=O)NC1=O)C2=O [(3S)-3-(5-{[(3S,4S)-1-({2-[(4S)-2,2-dimethyloxan-4-yl]-8-fluoroquinolin-6-yl}methyl)-4-(methoxymethyl)pyrrolidin-3-yl]oxy}-1-oxo-2,3-dihydro-1H-isoindol-2-yl)piperidine-2,6-dione]",25.19,1.2,0.638,,,8.947
"COC[C@@H]1CN(Cc2ccc3nc([C@H]4CCOC(C)(C)C4)ccc3c2)C[C@H]1Oc1ccc2c(c1)CN([C@H]1CCC(=O)NC1=O)C2=O [(3S)-3-(5-{[(3S,4S)-1-({2-[(4S)-2,2-dimethyloxan-4-yl]quinolin-6-yl}methyl)-4-(methoxymethyl)pyrrolidin-3-yl]oxy}-1-oxo-2,3-dihydro-1H-isoindol-2-yl)piperidine-2,6-dione]",25.45,1.25,0.558,,,8.285
"COC[C@@H]1CN(Cc2ccc3nc(N4CCN(C(C)=O)CC4)ccc3c2)C[C@H]1Oc1ccc2c(c1)CN([C@H]1CCC(=O)NC1=O)C2=O [(3S)-3-(5-{[(3S,4S)-1-{[2-(4-acetylpiperazin-1-yl)quinolin-6-yl]methyl}-4-(methoxymethyl)pyrrolidin-3-yl]oxy}-1-oxo-2,3-dihydro-1H-isoindol-2-yl)piperidine-2,6-dione]",27.27,1.41,1.12,,,8.785

# Further lines, with some results ahead:
"293T-LentiX WEE1-ePL Degradation 4 hr (Ymin) [1, 3]",DC50 [1] [nM],EC50 [2] [nM],"293T-LentiX WEE1-ePL Degradation 4 hr (Ymin) ([1]; lower limit of the fit (0 = luciferase inhibitor, Ymax = DMSO control))",EC50 ([2]; growth inhibition) [nM],Compound,MKN45 Cell Prolif. 120 hr (Ymin-Obs) [2]
38.34,2.88,10.8,,,"O=C1CC[C@H](N2Cc3cc(O[C@H]4CCN(Cc5cc(Cl)c6nc(N7CCOCC7)ncc6c5)C4)ccc3C2=O)C(=O)N1 [(3S)-3-(5-{[(3S)-1-{[8-chloro-2-(morpholin-4-yl)quinazolin-6-yl]methyl}pyrrolidin-3-yl]oxy}-1-oxo-2,3-dihydro-1H-isoindol-2-yl)piperidine-2,6-dione]",12.54
29.99,1.1,4.44,,,"O=C1CC[C@H](N2Cc3cc(O[C@H]4CCN(Cc5cc(Cl)c6nc(C7CCOCC7)ccc6c5)C4)ccc3C2=O)C(=O)N1 [(3S)-3-(5-{[(3S)-1-{[8-chloro-2-(oxan-4-yl)quinolin-6-yl]methyl}pyrrolidin-3-yl]oxy}-1-oxo-2,3-dihydro-1H-isoindol-2-yl)piperidine-2,6-dione]",10.22
42.1,2.5,2.28,,,"O=C1CC[C@H](N2Cc3cc(O[C@H]4CCN(Cc5cc(C6CC6)c6nc(N7CCOCC7)ncc6c5)C4)ccc3C2=O)C(=O)N1 [(3S)-3-(5-{[(3S)-1-{[8-cyclopropyl-2-(morpholin-4-yl)quinazolin-6-yl]methyl}pyrrolidin-3-yl]oxy}-1-oxo-2,3-dihydro-1H-isoindol-2-yl)piperidine-2,6-dione]",2.136
33.6,27.6,13.4,,,"O=C1CC[C@H](N2Cc3cc(O[C@H]4CCN(Cc5cc(F)c6nc(C7CCOCC7)ncc6c5)C4)ccc3C2=O)C(=O)N1 [(3S)-3-(5-{[(3S)-1-{[8-fluoro-2-(oxan-4-yl)quinazolin-6-yl]methyl}pyrrolidin-3-yl]oxy}-1-oxo-2,3-dihydro-1H-isoindol-2-yl)piperidine-2,6-dione]",9.241
26.17,1.41,1.13,,,"C[C@@H]1CN(Cc2cc(F)c3nc([C@@H]4CCOC4)ccc3c2)C[C@H]1Oc1ccc2c(c1)CN([C@H]1CCC(=O)NC1=O)C2=O [(3S)-3-(5-{[(3S,4R)-1-({8-fluoro-2-[(3S)-oxolan-3-yl]quinolin-6-yl}methyl)-4-methylpyrrolidin-3-yl]oxy}-1-oxo-2,3-dihydro-1H-isoindol-2-yl)piperidine-2,6-dione]",7.979
26.93,11.9,3.54,,,"COC[C@@H]1CN(Cc2ccc3nc(C4CCN(C(C)=O)CC4)ncc3c2)C[C@H]1Oc1ccc2c(c1)CN([C@H]1CCC(=O)NC1=O)C2=O [(3S)-3-(5-{[(3S,4S)-1-{[2-(1-acetylpiperidin-4-yl)quinazolin-6-yl]methyl}-4-(methoxymethyl)pyrrolidin-3-yl]oxy}-1-oxo-2,3-dihydro-1H-isoindol-2-yl)piperidine-2,6-dione]",9.28
